The text below walks through data of paper PMC8162437, “Copper-mediated peptide arylation selective for the N-terminus” (Chemical Science, 2020).

Starred links: 1 amine or outer side, 2 acyl side, 3 side chain; linkers in the order of their positions; H or OH if unused. Non-standard residues stand in square brackets, D forms with d. Residues, ends and D or L forms follow the SMILES beside them. X1 = CNS(=O)(=O)c1ccccc1N([C@H](C(=O)[*:2])C(C)C)[*:1]

This data set relates to Pfu aminopeptidase I. Conditions: 100 μM 5, 40 μM 5a, 0.08 μg mL−1 aminopeptidase I, 20 μM Co(OAc)2, NaOAc buffer 5 mM, pH 6.0, 95 °C, quenched with EDTA, RP-HPLC at 220 and 310 nm, internal standard 19, starting material peak area compared with 0 h.

Description: (b) RP-HPLC analysis of the enzymatic degradation of angiotensin IV (5) and arylated angiotensin IV (5a) with aminopeptidase I. Conditions: 100 μM 5, 40 μM 5a, 0.08 μg mL^−1 aminopeptidase I, and 20 μM Co(OAc)2 in NaOAc buffer (5 mM, pH = 6.0) at 95 °C. Internal standard 19 for quantification. (c) Peptidase activity: time course for aminopeptidease I cleavage of arylated angiotensin IV (5a, orange) and angiotensin IV (5, blue).
We decided to investigate whether the charge and structural perturbation afforded by the N-arylation engendered peptide stability towards enzymatic degradation.
Enzymatic Degradation with Aminopeptidase I
Stability Test of Peptides to Aminopeptidase I
1.7 mM in 20% aq. MeCN) and Co(OAc)2 (50 µL, 200 µM in H2O) in NaOAc buffer (338 µL, 5 mM,
pH = 6.0) was added aminopeptidase I (75 µL, 0.5 mg/mL in Tris buffer (50 mM, pH = 6.0). A 50 -
µL aliquot was immediately removed after addition of the enzyme and was quenched with EDTA
(5 µL, 1 M in H2O). Internal standard 2-amino-N,N’-dimethylbenzenesulfonamide 19 was added
(1.5 μL, 4 mM in DMSO) and the 0 h timepoint was analyzed by RP-HPLC (20-60% MeCN over
28 min) at 220 nm and 310 nm. The reaction mixture was then heated to 95 °C and 50-µL aliquots
were removed and quenched with EDTA (5 µL, 1 M in H2O) at 10 min, 30 min, 1 h, and 2 h. After
quenching, the internal standard 19 was added (1.5 μL, 4 mM in DMSO) and analyzed by RP- […]

As for `CC[C@H](C)[C@H](NC(=O)[C@H](Cc1ccc(O)cc1)NC(=O)[C@@H](Nc1ccccc1S(=O)(=O)NC)C(C)C)C(=O)N[C@@H](Cc1c[nH]cn1)C(=O)N1CCC[C@H]1C(=O)N[C@@H](Cc1ccccc1)C(=O)O` [5a] (H-[X1]YIHPF-OH), for the setting “2 h”, the “Stability towards enzymatic degradation by aminopeptidase I, after 2 h incubation” value is “remained stable”.
In the case of `CC[C@H](C)[C@H](NC(=O)[C@H](Cc1ccc(O)cc1)NC(=O)[C@@H](N)C(C)C)C(=O)N[C@@H](Cc1cnc[nH]1)C(=O)N1CCC[C@H]1C(=O)N[C@@H](Cc1ccccc1)C(=O)O` [compound 5, Angiotensin IV], under “10 min”, the “Stability towards enzymatic degradation by aminopeptidase I, after 10 minutes” value is “completely consumed”.
